Assay results taken from US7211574B2, “Selective D1/D5 receptor antagonists for the treatment of obesity and CNS disorders” (Schering Corporation, priority 2002, dated 2007).
Like-named read-outs stand apart in the source and are kept apart here.

How the values were obtained:
[1] = target: T1, human D2 (long variant) receptor (Homo sapiens, UniProt P14416); experiment: radioligand binding competition assay, D2; settings: membranes of Ltk- cells expressing D2 (long variant); 0.2 nM [3H] Methylspiperone; 1 hour at room temperature
T1 construct: expressed in transfected cells; host or cells: Ltk- cells (mouse fibroblast line), membrane preparation
Experimental: (§1) Affinity values (Ki) of compounds at human D1 and D2 receptors were ascertained using radioligand binding competition assays. Ltk- cells expressing D1 and D2 (long variant) receptors were lysed in hypotonic buffer for membrane preparation. Membranes were incubated with various concentrations of test compound and 1 nM [3H] of a compound of formula III and 0.2 nM [3H] Methylspiperone for D1 and D2 assays, respectively. Non-specific binding was defined as binding in the presence of 10 micromolar of a compound of formula III for D1 assays and 10 micromolar butaclamol for […]. Following incubation to equilibrium (1 hour at room temperature), bound radioligand was separated from free by rapid filtration. Bound radioactivity on the dried filters was quantified by liquid scintillation counting.

human D1 receptor = target: T2, human D1 receptor (Homo sapiens, UniProt P21728); experiment: radioligand binding competition assay, D1
T2 construct: expressed in transfected cells; host or cells: Ltk- cells (mouse fibroblast line), membrane preparation
Experimental: as §1

[2] = membranes of Ltk- cells expressing D1, 1 nM [3H] compound of formula III, 1 hour at room temperature, read-out: D1 (Ki)

T2 sequence (P21728 whole entry): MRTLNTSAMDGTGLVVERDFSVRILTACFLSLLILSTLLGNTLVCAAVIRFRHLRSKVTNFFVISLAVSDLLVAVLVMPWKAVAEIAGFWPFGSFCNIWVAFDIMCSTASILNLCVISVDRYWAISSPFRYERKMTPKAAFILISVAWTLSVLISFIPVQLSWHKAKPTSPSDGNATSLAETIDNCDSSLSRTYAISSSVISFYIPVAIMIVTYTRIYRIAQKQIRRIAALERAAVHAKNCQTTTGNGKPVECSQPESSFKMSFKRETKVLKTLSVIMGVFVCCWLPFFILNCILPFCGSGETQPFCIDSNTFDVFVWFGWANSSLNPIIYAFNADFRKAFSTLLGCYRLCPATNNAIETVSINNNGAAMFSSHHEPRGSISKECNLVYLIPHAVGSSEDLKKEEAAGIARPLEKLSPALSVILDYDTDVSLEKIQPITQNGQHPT

CN1CCc2cc(Cl)c3[nH]ncc3c2[C@@H](c2ccccc2)C1 [Compound 4]
Ki [1]: 3550 nM | Ki (human D1 receptor; [2]): 14 nM

Clc1cc2c(c3cn[nH]c13)[C@@H](c1ccccc1)CNCC2 [Compound 6]
Ki [1]: 5010 nM | Ki (human D1 receptor; [2]): 183 nM

Cc1cc2c3c(cc(Cl)c2[nH]1)CCN(C)[C@H]1CCc2ccccc2[C@H]31 [Compound 8]
Ki [1]: 232 nM | Ki (human D1 receptor): 24.7 nM

CN1CCc2cc(Cl)c3[nH]cnc3c2[C@H]2c3ccccc3CC[C@@H]21 [Compound 13A]
Ki [1]: 984 nM | Ki (human D1 receptor; [2]): 248 nM

CN1CCc2cc(Cl)c3[nH]nnc3c2[C@H]2c3ccccc3CC[C@@H]21 [Compound 15A]
Ki [1]: 1530 nM | Ki (human D1 receptor; [2]): 146 nM

CN1CCc2cc(Cl)c3[nH]c(O)nc3c2[C@H]2c3ccccc3CC[C@@H]21 [Compound 16A]
Ki [1]: 1020 nM | Ki (human D1 receptor): 7 nM

CN1CCc2cc(Cl)c3[nH]c(O)nc3c2[C@@H](c2ccccc2)C1 [Compound 16B]
Ki (human D1 receptor; [2]): 350 nM

CN1CCc2cc(Cl)c3[nH]c(=O)[nH]c3c2[C@H]2c3cccc(Br)c3CC[C@@H]21 [Compound 16C]
Ki [1]: 172 nM | Ki (human D1 receptor; [2]): 6.1 nM

CN1CCc2cc(Cl)c3[nH]c(=S)[nH]c3c2[C@H]2c3ccccc3CC[C@@H]21 [Compound 17A]
Ki [1]: 1040 nM | Ki (human D1 receptor): 40 nM

CN1CCc2cc(Cl)c3[nH]c(=S)[nH]c3c2[C@@H](c2ccccc2)C1 [Compound 17B]
Ki (human D1 receptor; [2]): 1790 nM

Oc1nc2c(Cl)cc3c(c2[nH]1)[C@H]1c2ccccc2CC[C@@H]1NCC3 [Compound 18A]
Ki [1]: 3270 nM | Ki (human D1 receptor): 16.5 nM

Oc1nc2c(Cl)cc3c(c2[nH]1)[C@@H](c1ccccc1)CNCC3 [Compound 18B]
Ki (human D1 receptor; [2]): 1900 nM

O=c1[nH]c2c(Cl)cc3c(c2[nH]1)[C@H]1c2cccc(Br)c2CC[C@@H]1NCC3 [Compound 18C]
Ki [1]: 648 nM | Ki (human D1 receptor; [2]): 11.3 nM

CN1CCc2cc(Cl)c3[nH]c(=O)sc3c2[C@H]2c3ccccc3CC[C@@H]21 [Compound 25A]
Ki [1]: 257 nM | Ki (human D1 receptor): 2.1 nM

CN1CCc2cc(Cl)c3nc(O)sc3c2[C@@H](c2ccccc2)C1 [Compound 25B]
Ki [1]: 2890 nM | Ki (human D1 receptor; [2]): 115 nM

O=c1[nH]c2c(Cl)cc3c(c2s1)[C@H]1c2ccccc2CC[C@@H]1NCC3 [Compound 26A]
Ki [1]: 661 nM | Ki (human D1 receptor): 6.5 nM

O=c1[nH]c2c(Cl)cc3c(c2s1)[C@@H](c1ccccc1)CNCC3 [Compound 26B]
Ki [1]: 3200 nM | Ki (human D1 receptor; [2]): 1080 nM

CN1CCc2cc(Cl)c3[nH]c(=O)[nH]c3c2[C@H]2c3cccc(-c4ccccc4)c3CC[C@@H]21 [Compound 27]
Ki [1]: 336 nM | Ki (human D1 receptor; [2]): 1.9 nM
